Reference: US20120264735A1 (priority 2009, published 2012)

Target: T1, c-Met kinase (recombinant c-Met) (Homo sapiens, UniProt P08581)
T1 construct: 0.27 nM recombinant c-Met
Assay: In vitro kinase assay I (homogeneous time-resolved fluorescence tyrosine kinase assay)
Assay type: biochemical
Method in brief: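 Biotinylated peptide (0.5 μM) phosphorylated by 0.2 nM recombinant c-Met with 50 μM MgATP, 60 min at room temperature, pH 7.4, 5% DMSO. EDTA stop; HTRF read with Eu-anti-phosphotyrosine antibody and streptavidin-APC. IC50 from 4-parameter logistic fit.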

T1 sequence (P08581 25-1390): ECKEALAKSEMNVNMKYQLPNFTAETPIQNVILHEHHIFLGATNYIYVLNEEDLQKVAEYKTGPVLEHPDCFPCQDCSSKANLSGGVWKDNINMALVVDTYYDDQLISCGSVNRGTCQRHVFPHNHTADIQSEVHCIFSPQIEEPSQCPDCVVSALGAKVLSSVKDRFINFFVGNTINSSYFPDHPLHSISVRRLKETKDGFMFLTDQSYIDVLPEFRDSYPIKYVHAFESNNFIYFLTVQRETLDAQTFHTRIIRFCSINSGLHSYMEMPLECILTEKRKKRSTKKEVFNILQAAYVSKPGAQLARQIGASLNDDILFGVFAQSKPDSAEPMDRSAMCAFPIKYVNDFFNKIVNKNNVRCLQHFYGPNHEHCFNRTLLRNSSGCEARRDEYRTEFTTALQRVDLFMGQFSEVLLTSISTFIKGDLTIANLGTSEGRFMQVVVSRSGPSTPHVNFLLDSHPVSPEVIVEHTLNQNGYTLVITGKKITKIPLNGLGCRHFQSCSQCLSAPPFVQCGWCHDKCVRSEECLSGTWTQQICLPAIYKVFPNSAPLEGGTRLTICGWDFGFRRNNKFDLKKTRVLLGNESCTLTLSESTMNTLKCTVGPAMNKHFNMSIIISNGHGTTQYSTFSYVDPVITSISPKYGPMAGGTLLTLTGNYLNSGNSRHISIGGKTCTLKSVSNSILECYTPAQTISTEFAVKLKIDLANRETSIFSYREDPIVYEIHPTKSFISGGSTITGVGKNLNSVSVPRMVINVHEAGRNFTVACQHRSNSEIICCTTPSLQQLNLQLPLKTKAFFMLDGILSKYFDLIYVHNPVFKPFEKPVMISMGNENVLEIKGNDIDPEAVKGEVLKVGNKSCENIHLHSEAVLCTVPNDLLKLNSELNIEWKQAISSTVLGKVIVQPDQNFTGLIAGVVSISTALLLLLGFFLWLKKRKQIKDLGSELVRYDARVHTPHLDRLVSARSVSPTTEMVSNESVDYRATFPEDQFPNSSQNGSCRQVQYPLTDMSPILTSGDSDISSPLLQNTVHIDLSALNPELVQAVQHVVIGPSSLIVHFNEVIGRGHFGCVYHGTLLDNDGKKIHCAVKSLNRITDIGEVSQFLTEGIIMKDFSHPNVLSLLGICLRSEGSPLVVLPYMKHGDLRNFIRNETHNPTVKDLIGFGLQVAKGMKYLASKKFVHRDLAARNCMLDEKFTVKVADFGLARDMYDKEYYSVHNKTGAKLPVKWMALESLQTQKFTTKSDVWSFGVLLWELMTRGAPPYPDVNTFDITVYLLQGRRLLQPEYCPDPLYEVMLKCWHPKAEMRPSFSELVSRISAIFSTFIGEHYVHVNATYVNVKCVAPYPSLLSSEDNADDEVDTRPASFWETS

Structure (SMILES) | IC50 [nM]
CCOc1cnc2ccc(C(C)c3nn(-c4cnn(CC)c4)ccc3=O)cc2c1 (single isomer, unassigned) [Example 226, 3-[(1S or R)-1-(3-ethoxyquinolin-6-yl)ethyl]-1-(1-ethyl-1H-pyrazol-4-yl)pyridazin-4(1H)-one] | 100 to 1000
CCOc1cnc2ccc(C(C)c3nn(-c4cnn(CC)c4)ccc3=O)cc2c1 (single isomer, unassigned) [Example 227, 3-[(1R or S)-1-(3-ethoxyquinolin-6-yl)ethyl]-1-(1-ethyl-1H-pyrazol-4-yl)pyridazin-4(1H)-one] | < 100
CCn1cc(-n2ccc(=O)c(C(C)c3cccc(-c4ncc(OCc5ccccc5)cn4)c3)n2)cn1 (single isomer, unassigned) [Example 228, 3-((1S or R)-1-{3-[5-(benzyloxy)pyrimidin-2-yl]phenyl}ethyl)-1-(1-ethyl-1H-pyrazol-4-yl)pyridazin-4(1H)-one] | 100 to 1000
CCn1cc(-n2ccc(=O)c(C(C)c3cccc(-c4ncc(OCc5ccccc5)cn4)c3)n2)cn1 (single isomer, unassigned) [Example 229, 3-((1R or S)-1-{3-[5-(benzyloxy)pyrimidin-2-yl]phenyl}ethyl)-1-(1-ethyl-1H-pyrazol-4-yl)pyridazin-4(1H)-one] | < 100
CCc1cnc(-c2cccc(C(C)c3nn(-c4ccc(F)c(F)c4)ccc3=O)c2)nc1 (single isomer, unassigned) [Example 230, 1-(3,4-difluorophenyl)-3-{(1S or R)-1-[3-(5-ethylpyrimidin-2-yl)phenyl]ethyl}pyridazin-4(1H)-one] | 100 to 1000
CCc1cnc(-c2cccc(C(C)c3nn(-c4ccc(F)c(F)c4)ccc3=O)c2)nc1 (single isomer, unassigned) [Example 231, 1-(3,4-difluorophenyl)-3-{(1R or S)-1-[3-(5-ethylpyrimidin-2-yl)phenyl]ethyl}pyridazin-4(1H)-one] | < 100
CC(c1cccc(-c2ncc(-c3cnn(C)c3)cn2)c1)c1nn(-c2cnn(C)c2)ccc1=O (single isomer, unassigned) [Example 232, 1-(1-methyl-1H-pyrazol-4-yl)-3-[(1S or R)-1-{3-[5-(1-methyl-1H-pyrazol-4-yl)pyrimidin-2-yl]phenyl}ethyl]pyridazin-4(1H)-one] | < 100
CCn1cc(-n2ccc(=O)c(C(C)c3cccc(-c4ncc(-c5cnn(C)c5)cn4)c3)n2)cn1 (single isomer, unassigned) [Example 234, 1-(1-ethyl-1H-pyrazol-4-yl)-3-[(1S or R)-1-{3-[5-(1-methyl-1H-pyrazol-4-yl)pyrimidin-2-yl]phenyl}ethyl]pyridazin-4(1H)-one] | < 100
CCn1cc(-n2ccc(=O)c(C(C)c3cccc(-c4ncc(-c5cnn(C)c5)cn4)c3)n2)cn1 (single isomer, unassigned) [Example 235, 1-(1-ethyl-1H-pyrazol-4-yl)-3-[(1R or S)-1-{3-[5-(1-methyl-1H-pyrazol-4-yl)pyrimidin-2-yl]phenyl}ethyl]pyridazin-4(1H)-one] | < 100
CC(c1cccc(-c2ncc(-c3cnn(C)c3)cn2)c1)c1nn(-c2ccc(F)c(F)c2)ccc1=O (single isomer, unassigned) [Example 238, 1-(3,4-difluorophenyl)-3-[(1S or R)-1-{3-[5-(1-methyl-1H-pyrazol-4-yl)pyrimidin-2-yl]phenyl}ethyl]pyridazin-4(1H)-one] | 100 to 1000
CC(c1cccc(-c2ncc(-c3cnn(C)c3)cn2)c1)c1nn(-c2ccc(F)c(F)c2)ccc1=O (single isomer, unassigned) [Example 239, 1-(3,4-difluorophenyl)-3-[(1R or S)-1-{3-[5-(1-methyl-1H-pyrazol-4-yl)pyrimidin-2-yl]phenyl}ethyl]pyridazin-4(1H)-one] | < 100

Now from value to compound:

IC50 [nM] | Structure (SMILES)
< 100 | CC(c1cccc(-c2ncc(OC3COC3)cn2)c1)c1nn(-c2cnn(C)c2)ccc1=O (single isomer, unassigned) [Example 216, 1-(1-methyl-1H-pyrazol-4-yl)-3-((1R or S)-1-{3-[5-(oxetan-3-yloxy)pyrimidin-2-yl]phenyl}ethyl)pyridazin-4(1H)-one]
100 to 1000 | CCn1cc(-n2ccc(=O)c(C(C)c3cccc(-c4ncc(COC)cn4)c3)n2)cn1 (single isomer, unassigned) [Example 217, 1-(1-ethyl-1H-pyrazol-4-yl)-3-((1S or R)-1-{3-[5-(methoxymethyl)pyrimidin-2-yl]phenyl}ethyl)pyridazin-4(1H)-one]
< 100 | CCn1cc(-n2ccc(=O)c(C(C)c3cccc(-c4ncc(COC)cn4)c3)n2)cn1 (single isomer, unassigned) [Example 218, 1-(1-ethyl-1H-pyrazol-4-yl)-3-((1R or S)-1-{3-[5-(methoxymethyl)pyrimidin-2-yl]phenyl}ethyl)pyridazin-4(1H)-one]
100 to 1000 | COCc1cnc(-c2cccc(C(C)c3nn(-c4cnn(C)c4)ccc3=O)c2)nc1 (single isomer, unassigned) [Example 219, 3-((1S or R)-1-{3-[5-(methoxymethyl)pyrimidin-2-yl]phenyl}ethyl)-1-(1-methyl-1H-pyrazol-4-yl)pyridazin-4(1H)-one]
< 100 | COCc1cnc(-c2cccc(C(C)c3nn(-c4cnn(C)c4)ccc3=O)c2)nc1 (single isomer, unassigned) [Example 220, 3-((1R or S)-1-{3-[5-(methoxymethyl)pyrimidin-2-yl]phenyl}ethyl)-1-(1-methyl-1H-pyrazol-4-yl)pyridazin-4(1H)-one]
100 to 1000 | COCCOc1cnc(-c2cccc(C(C)c3nn(-c4cnn(C)c4)ccc3=O)c2)nc1 (single isomer, unassigned) [Example 222, 3-((1S or R)-1-{3-[5-(2-methoxyethoxy)pyrimidin-2-yl]phenyl}ethyl)-1-(1-methyl-1H-pyrazol-4-yl)pyridazin-4(1H)-one]
< 100 | COCCOc1cnc(-c2cccc(C(C)c3nn(-c4cnn(C)c4)ccc3=O)c2)nc1 (single isomer, unassigned) [Example 223, 3-((1R or S)-1-{3-[5-(2-methoxyethoxy)pyrimidin-2-yl]phenyl}ethyl)-1-(1-methyl-1H-pyrazol-4-yl)pyridazin-4(1H)-one]
< 100 | CC(c1cccc(-c2ncc(-c3cnn(C)c3)cn2)c1)c1nn(-c2cnn(C)c2)ccc1=O (single isomer, unassigned) [Example 233, 1-(1-methyl-1H-pyrazol-4-yl)-3-[(1R or S)-1-{3-[5-(1-methyl-1H-pyrazol-4-yl)pyrimidin-2-yl]phenyl}ethyl]pyridazin-4(1H)-one]
< 100 | CCc1cnc(-c2cccc(C(C)c3nn(-c4cnn(C)c4)ccc3=O)c2)nc1 (single isomer, unassigned) [Example 236, 3-{(1S or R)-1-[3-(5-ethylpyrimidin-2-yl)phenyl]ethyl}-1-(1-methyl-1H-pyrazol-4-yl)pyridazin-4(1H)-one]
< 100 | CCc1cnc(-c2cccc(C(C)c3nn(-c4cnn(C)c4)ccc3=O)c2)nc1 (single isomer, unassigned) [Example 237, 3-{(1R or S)-1-[3-(5-ethylpyrimidin-2-yl)phenyl]ethyl}-1-(1-methyl-1H-pyrazol-4-yl)pyridazin-4(1H)-one]
